# Test: Western blot analysis for "B" compounds
# Format: cell-based
# Details: read-out: Traditional Western Degradation Potency (DC50)
# How it was run: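 Compound-treated cells lysed in RIPA buffer with protease inhibitors; equal protein (BCA) run on 10% SDS-PAGE, transferred to PVDF and probed with target antibodies. Band intensities quantified by densitometry and normalized to GAPDH.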
row,Compound,DC50 [nM]
1,"O=C1CCC(N2C(=O)c3cc4c(cc3C2=O)CN(Cc2ccc(N3CC(Oc5ccc([C@@H]6c7ccc(O)cc7CC[C@@H]6c6ccccc6)cc5)C3)nc2)C4)C(=O)N1 (stereo partly drawn) [Compound B91, 2-(2,6-dioxopiperidin-3-yl)-6-((6-(3-(4-((1R,2S)-6-hydroxy-2-phenyl-1,2,3,4-tetrahydronaphthalen-1-yl)phenoxy)azetidin-1-yl)pyridin-3-yl)methyl)-6,7-dihydropyrrolo[3,4-f]isoindole-1,3(2H,5H)-dione]",10 to 100
2,"O=C1CCC(N2C(=O)c3cc4c(cc3C2=O)CN([C@H]2CC[C@H](C(=O)N3CC(Nc5ccc([C@@H]6c7ccc(O)cc7CC[C@@H]6c6ccccc6)cc5)C3)CC2)C4)C(=O)N1 (stereo partly drawn) [Compound B124, 2-(2,6-dioxopiperidin-3-yl)-6-((1S,4r)-4-(3-((4-((1R,2S)-6-hydroxy-2-phenyl-1,2,3,4-tetrahydronaphthalen-1-yl)phenyl)amino)azetidine-1-carbonyl)cyclohexyl)-6,7-dihydropyrrolo[3,4-f]isoindole-1,3(2H,5H)-dione]",> 100
3,"O=C1CCC(N2C(=O)c3cc4c(cc3C2=O)CN(CC(=O)N2CCC3(CC2)CCN(C(=O)c2ccc([C@@H]5c6ccc(O)cc6CC[C@@H]5c5ccccc5)cc2)CC3)C4)C(=O)N1 (stereo partly drawn) [Compound B290, 2-(2,6-dioxopiperidin-3-yl)-6-(2-(9-(4-((1R,2S)-6-hydroxy-2-phenyl-1,2,3,4-tetrahydronaphthalen-1-yl)benzoyl)-3,9-diazaspiro[5.5]undecan-3-yl)-2-oxoethyl)-6,7-dihydropyrrolo[3,4-f]isoindole-1,3(2H,5H)-dione]",> 100
4,"O=C1CCC(N2C(=O)c3cc4c(cc3C2=O)CN(CC2(F)CCN(C(=O)C3CN(c5ccc([C@@H]6c7ccc(O)cc7CC[C@@H]6c6ccccc6)cc5)C3)CC2)C4)C(=O)N1 (stereo partly drawn) [Compound B262, 2-(2,6-dioxopiperidin-3-yl)-6-((4-fluoro-1-(1-(4-((1R,2S)-6-hydroxy-2-phenyl-1,2,3,4-tetrahydronaphthalen-1-yl)phenyl)azetidine-3-carbonyl)piperidin-4-yl)methyl)-6,7-dihydropyrrolo[3,4-f]isoindole-1,3(2H,5H)-dione]",> 100
5,"2-(2,6-dioxopiperidin-3-yl)-6-((1S,4s)-4-((3-((4-((1R,2S)-6- hydroxy-2-phenyl-1,2,3,4-tetrahydronaphthalen-1- yl)phenyl)amino)azetidin-1-yl)methyl)cyclohexane-1- carbonyl)-6,7-dihydropyrrolo[3,4-f]isoindole-1,3(2H,5H)- dionc [Compound B113]",10 to 100
6,"O=C1CCC(N2C(=O)c3cc4c(cc3C2=O)CC2(C4)CN(C(=O)CN3CC(Oc4ccc([C@@H]5c6ccc(O)cc6CC[C@@H]5c5ccccc5)cc4)C3)C2)C(=O)N1 (stereo partly drawn) [Compound B299, 2′-(2,6-dioxopiperidin-3-yl)-1-(2-(3-(4-((1R,2S)-6-hydroxy-2-phenyl-1,2,3,4-tetrahydronaphthalen-1-yl)phenoxy)azetidin-1-yl)acetyl)-5′,7′-dihydro-1'H-spiro[azetidine-3,6′-cyclopenta[f]isoindole]-1′,3′(2'H)-dione]",> 100
7,"2-(2,6-dioxopiperidin-3-yl)-6-(1-((1-(4-((1R,2S)-6-hydroxy-2- phenyl-1,2,3,4-tctrahydronaphthalcn-1-yl)phenyl)pipcridin-4- yl)methyl)piperidin-4-yl)-2,3,5,6-tetrahydropyrrolo[3,4- f]isoindole-1,7-dione [Compound B304]",> 100
8,"O=C1CCC(N2C(=O)c3cc4c(cc3C2=O)CN(C(=O)CN2CC3(CCN(c5ccc([C@@H]6c7ccc(O)cc7CC[C@@H]6c6ccccc6)cc5)CC3)C2)C4)C(=O)N1 (mixture of isomers) [Compound B17, 2-(2,6-dioxopiperidin-3-yl)-6-(2-(7-(4-((1R,2S)-6-hydroxy-2-phenyl-1,2,3,4-tetrahydronaphthalen-1-yl)phenyl)-2,7-diazaspiro[3.5]nonan-2-yl)acetyl)-6,7-dihydropyrrolo[3,4-f]isoindole-1,3(2H,5H)-dione]",10 to 100

# Results, then the compound that gave them:
row,DC50 [nM],Compound
1,< 10,"O=C1CCC(N2Cc3cc4c(cc3C2=O)CN(C[C@H]2CC[C@H](C(=O)N3CC(Oc5ccc([C@@H]6c7ccc(O)cc7CC[C@@H]6c6ccccc6)cc5)C3)CC2)C4)C(=O)N1 (stereo partly drawn) [Compound B294, 3-(6-(((1R,4r)-4-(3-(4-((1R,2S)-6-hydroxy-2-phenyl-1,2,3,4-tetrahydronaphthalen-1-yl)phenoxy)azetidine-1-carbonyl)cyclohexyl)methyl)-1-oxo-3,5,6,7-tetrahydropyrrolo[3,4-f]isoindol-2(1H)-yl)piperidine-2,6-dione]"
2,< 10,"O=C1CCC(N2Cc3cc4c(cc3C2=O)CN(C2CCN(CC3CCN(c5ccc([C@@H]6c7ccc(O)cc7CC[C@@H]6c6ccc(F)cc6)cc5)CC3)CC2)C4)C(=O)N1 (stereo partly drawn) [Compound B68, 3-(6-(1-((1-(4-((1R,2S)-2-(4-fluorophenyl)-6-hydroxy-1,2,3,4-tetrahydronaphthalen-1-yl)phenyl)piperidin-4-yl)methyl)piperidin-4-yl)-1-oxo-3,5,6,7-tetrahydropyrrolo[3,4-f]isoindol-2(1H)-yl)piperidine-2,6-dione]"
3,> 100,"O=C1CCC(N2C(=O)c3cc4c(cc3C2=O)CCN(CC(=O)N2CC3(CCN(c5ccc([C@@H]6c7ccc(O)cc7CC[C@@H]6c6ccc(F)cc6)cc5)CC3)C2)CC4)C(=O)N1 (stereo partly drawn) [Compound B53, 2-(2,6-dioxopiperidin-3-yl)-7-(2-(7-(4-((1R,2S)-2-(4-fluorophenyl)-6-hydroxy-1,2,3,4-tetrahydronaphthalen-1-yl)phenyl)-2,7-diazaspiro[3.5]nonan-2-yl)-2-oxoethyl)-6,7,8,9-tetrahydroazepino[4,5-f]isoindole-1,3(2H,5H)-dione]"
4,> 100,"O=C1CCC(N2C(=O)c3cc4c(cc3C2=O)CN(CC2CCN(CC3CCN(c5ccc([C@@H]6c7ccc(O)cc7CC[C@@H]6c6ccccc6)cc5)CC3)CC2)C4)C(=O)N1 (stereo partly drawn) [Compound B273, 2-(2,6-dioxopiperidin-3-yl)-6-((1-((1-(4-((1R,2S)-6-hydroxy-2-phenyl-1,2,3,4-tetrahydronaphthalen-1-yl)phenyl)piperidin-4-yl)methyl)piperidin-4-yl)methyl)-6,7-dihydropyrrolo[3,4-f]isoindole-1,3(2H,5H)-dione]"
5,< 10,"O=C1CCC(N2Cc3cc4c(cc3C2=O)CN(C(=O)CN2CCC3(CC2)CCN(c2ccc([C@@H]5c6ccc(O)cc6CC[C@@H]5c5ccccc5)cc2)CC3)C4)C(=O)N1 (stereo partly drawn) [Compound B105, 3-(6-(2-(9-(4-((1R,2S)-6-hydroxy-2-phenyl-1,2,3,4-tetrahydronaphthalen-1-yl)phenyl)-3,9-diazaspiro[5.5]undecan-3-yl)acetyl)-1-oxo-3,5,6,7-tetrahydropyrrolo[3,4-f]isoindol-2(1H)-yl)piperidine-2,6-dione]"
6,10 to 100,"CN1C[C@@H]2CN(CC3CCN(c4ccc([C@@H]5c6ccc(O)cc6CC[C@@H]5c5ccccc5)cc4)CC3)CCN2c2cc3c(cc21)C(=O)N(C1CCC(=O)NC1=O)C3 (stereo partly drawn) [Compound B137, 3-((S)-3-((1-(4-((1R,2S)-6-hydroxy-2-phenyl-1,2,3,4-tetrahydronaphthalen-1-yl)phenyl)piperidin-4-yl)methyl)-6-methyl-8-oxo-2,3,4,4a,5,6,8,10-octahydropyrazino[1,2-a]pyrrolo[3,4-g]quinoxalin-9(1H)-yl)piperidine-2,6-dione]"
7,> 100,"O=C1CCC(N2Cc3cc4c(cc3C2=O)CN(CC2CN(CC3CCN(c5ccc([C@@H]6c7ccc(O)cc7CC[C@@H]6c6ccccc6)cc5)CC3)C2)C4=O)C(=O)N1 (stereo partly drawn) [Compound B301, 2-(2,6-dioxopiperidin-3-yl)-6-((1-((1-(4-((1R,2S)-6-hydroxy-2-phenyl-1,2,3,4-tetrahydronaphthalen-1-yl)phenyl)piperidin-4-yl)methyl)azetidin-3-yl)methyl)-2,3,6,7-tetrahydropyrrolo[3,4-f]isoindole-1,5-dione]"
8,> 100,"O=C1CCC(N2C(=O)c3cc4c(cc3C2=O)CN(CC2CCN(C(=O)C3(F)CN(c5ccc([C@@H]6c7ccc(O)cc7CC[C@@H]6c6ccccc6)cc5)C3)CC2)C4)C(=O)N1 (stereo partly drawn) [Compound B266, 2-(2,6-dioxopiperidin-3-yl)-6-((1-(3-fluoro-1-(4-((1R,2S)-6-hydroxy-2-phenyl-1,2,3,4-tetrahydronaphthalen-1-yl)phenyl)azetidine-3-carbonyl)piperidin-4-yl)methyl)-6,7-dihydropyrrolo[3,4-f]isoindolc-1,3(2H,5H)-dionc]"
9,10 to 100,"O=C1CCC(N2C(=O)c3cc4c(cc3C2=O)CN(CC2CCN(c3ccc([C@@H]5c6ccc(O)cc6CC[C@@H]5c5ccccc5)cc3)CC2)C4)C(=O)N1 (mixture of isomers) [Compound B2, 2-(2,6-dioxopiperidin-3-yl)-6-((1-(4-((1R,2S)-6-hydroxy-2-phenyl-1,2,3,4-tetrahydronaphthalen-1-yl)phenyl)piperidin-4-yl)methyl)-6,7-dihydropyrrolo[3,4-f]isoindole-1,3(2H,5H)-dione]"
10,< 10,"O=C1CCC(N2C(=O)c3cc4c(cc3C2=O)CN(C2CCN(C(=O)C3CCN(c5ccc([C@@H]6c7ccc(O)cc7CC[C@@H]6c6ccccc6)cc5)CC3)CC2)C4)C(=O)N1 (stereo partly drawn) [Compound B7, 2-(2,6-dioxopiperidin-3-yl)-6-(1-(1-(4-((1R,2S)-6-hydroxy-2-phenyl-1,2,3,4-tetrahydronaphthalen-1-yl)phenyl)piperidine-4-carbonyl)piperidin-4-yl)-6,7-dihydropyrrolo[3,4-f]isoindole-1,3(2H,5H)-dione]"
11,> 100,"O=C1CCC(N2C(=O)c3cc4c(cc3C2=O)CN(CC2(F)CCN(C(=O)C3CCN(c5ccc([C@@H]6c7ccc(O)cc7CC[C@@H]6c6ccccc6)cc5)CC3)CC2)C4)C(=O)N1 (stereo partly drawn) [Compound B267, 2-(2,6-dioxopiperidin-3-yl)-6-((4-fluoro-1-(1-(4-((1R,2S)-6-hydroxy-2-phenyl-1,2,3,4-tetrahydronaphthalen-1-yl)phenyl)piperidine-4-carbonyl)piperidin-4-yl)methyl)-6,7-dihydropyrrolo[3,4-f]isoindole-1,3(2H,5H)-dione]"

# From US20260028354A1, “TETRAHYDRONAPHTHALENE DERIVATIVES AS ESTROGEN RECEPTOR DEGRADERS” (REGENT OF THE UNIVERSITY OF MICHIGAN, priority 2022, published 2026)
